Numbered stars: 1 amine (or outer) side, 2 acyl side, 3 side chain; on linkers, the order of the positions; unused ones are H or OH. Bridge positions count the residues as written; N and C are the ends. Square brackets hold non-standard residues; d marks the D form. Peptide text beside a SMILES is read from it. * marks the point of attachment. ξ: configuration not given here. Piperazine(2S-CO,4-Me) = CN1CCN[C@H](C(=O)O)C1; NH(1,3-benzodioxol-5-yl) = c1cc2c(cc1N*)OCO2; Morpholine(3S-CO) = O=C(O)[C@@H]1COCCN1; Phe(3-Me) = Cc1cccc(C[C@H](N)C(=O)O)c1; NH(4-Cl-2-F-phenyl) = Fc1cc(Cl)ccc1N*; Pro(4R-Me) = C[C@H]1CN[C@H](C(=O)O)C1; Hyp = O=C(O)[C@@H]1C[C@@H](O)CN1; ξNMeThr = CNC(C(=O)O)[C@@H](C)O; aThr = C[C@H](O)[C@H](N)C(=O)O; X3 = c1cc2c(cc1N*)OCCO2; CO = O=C([*:1])[*:2]
How the values were obtained:
S. aureus ClpP (Sa-ClpP) = biological target: T1, S. aureus ClpP (Sa-ClpP) (Staphylococcus aureus, UniProt Q2G036); assay: Casein-BODIPY digestion assay (ClpP activation); type: biochemical
T1 construct: made in house; host or cells: E. coli BL21 (DE3)
T1 sequence (Q2G036 whole entry): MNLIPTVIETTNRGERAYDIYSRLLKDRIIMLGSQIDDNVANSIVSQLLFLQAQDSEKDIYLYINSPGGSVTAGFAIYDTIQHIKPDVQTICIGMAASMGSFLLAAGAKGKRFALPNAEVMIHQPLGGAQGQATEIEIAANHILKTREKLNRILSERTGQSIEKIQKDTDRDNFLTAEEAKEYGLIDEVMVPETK

[1] = Plasma protein binding, rapid equilibrium dialysis; type: in vitro ADME, mouse; details: mouse, 4 h, 10 μM, pH 7.4
Protocol: This assay determines plasma protein binding of a drug/compound and free drug concentration in plasma using rapid equilibrium dialysis, which allow the aqueous component of plasma containing the free drug/compound through a dialysis membrane (MWCO˜8,000).
Solutions were prepared at 10 mM in DMSO. Dulbecco's phosphate buffered saline (DPBS; pH 7.4) was obtained from Invitrogen (Carlsbad, Calif.). Single-Use RED (rapid equilibrium dialysis) device was obtained from Thermo scientific (Rockford, Ill.). Human plasma was obtained from Innovative Research INC (Novi, Michigan, Ill).
Sample preparation for plasma protein binding was modified from Waters' method. (Waters et al. (2008) J. Pharm. Sci. 97(10): 4586-95). The Teflon base plate with the RED inserts (MWCO 8 K) were allowed to use without any pre-condition the membrane inserts. Human plasma was thawed and centrifuged at 1000 rpm for 2 min to remove any particulates. Each compound was prepared at 10 μM in human plasma. This was done by adding 1 μL, of drug solution (10 mM in DMSO) to 1000 μL, of human plasma (0.1% DMSO). Spiked plasma solutions (300 μL) were placed into the sample chamber (indicated by the red ring) and 500 μL, of DPBS into the adjacent chamber. The plate was sealed and incubated at 37° C. on an orbital shaker (100 rpm) for 4 hours. After incubation, the seal was removed from the RED plate and the volume of the insert confirmed—little to no volume change occurred. Aliquots (50 μL) were removed from each side of the insert and dispensed into a 96-well deep plate. An equal volume of blank plasma or DPBS was added to the required wells to create analytically identical sample matrices (matrix matching). To each sample 200 μL, of ACN containing 4 μg/mL warfarin IS was added. All of the plates were sealed and mixed well at 600 rpm for 10 min and were centrifuged at 4000 rpm for 20 min. The supernatants (120 μL) were transferred to analytical plates for analysis by LCMS. Conditions for Waters ACQUITY-UPLC-MS-UV system were described separately. The test compound concentrations were quantified in both buffer and plasma chambers via peak areas relative to the internal standard. The percentage of the test compound bound to plasma was calculated on following equations: % Free=(Concentration buffer chamber/concentration plasma chamber)×100% and % Bound=100%-% Free.

Plasma stability assay = type: in vitro ADME, human; details: human, 10 μM
Protocol: The plasma stability property of early drug discovery compounds can influence the in vivo efficacy of the test compounds/drugs. Human and/or mouse plasma degradation is determined using multiple time points to monitor the rate of disappearance of the parent compound during incubation.
Sample preparation for plasma stability was modified from Di et al. (2005) Int. J. Pharm. 297(1-2): 110-119. A set of incubation times of 0, 3, 24, and 48 hour were used. DMSO stock solutions of test compounds were prepared at 10 mM concentration. 1.8 μL of each test compound was each added directly to 1.8 mL of human/mouse plasma to get the final concentration of 10 μM. This compound/matrix was mixed and 70 μL was transferred to 8 time points plates (each in triplicate wells). For the Time 0 plate, 210 μL of cold acetonitrile with internal standard (4 μg/mL warfarin) was added to each well and no incubation needed. For other seven time points' plate, the plate was incubated at 37° C. for required time, followed by quenching of the reaction by adding 210 μL of cold acetonitrile with internal standard (4 μg/ml warfarin) to each well. All of the plates were sealed and mixed well at 600 rpm for 10 min and were centrifuged at 4000 rpm for 20 min. The supernatants (120 μL) were transferred to analytical plates for analysis by LCMS. Conditions for Waters ACQUITY-UPLC-MS-UV system was described separately. The plasma stability was evaluated via the half-life from least-squares fit of the multiple time points based on first-order kinetics.

| SMILES | EC50 (S. aureus ClpP (Sa-ClpP)) | Mouse [1] | Human (Plasma stability assay) |
| --- | --- | --- | --- |
| Cc1cccc(C[C@H](NC(=O)Nc2ccc3c(c2)OCCO3)C(=O)N[C@H]2COC(=O)[C@@H]3C[C@@H](C)CN3C(=O)[C@H](C)NC(=O)[C@@H]3CCCCN3C(=O)[C@@H]3CCCN3C2=O)c1 [Compound 22, (S)-2-(3-(2,3-DIHYDROBENZO[B][1,4]DIOXIN-6-YL)UREIDO)-N-((2R,6S,8AS,14AS,20S,23AS)-2,6-DIMETHYL-5,8,14,19,23-PENTAOXOOCTADECAHYDRO-1H,5H,14H,19H-PYRIDO[2,1-I]DIPYRROLO[2,1-C:2′,1′-L][1]OXA[4,7,10,13]TETRAAZACYCLOHEXADECIN-20-YL)-3-(M-TOLYL)PROPANAMIDE] | 650 ± 60 nM | 98.4 ± 0.1% | >50 h |
| Cc1cccc(C[C@H](NC(=O)Nc2ccc(Cl)cc2F)C(=O)N[C@@H]2C(=O)N3CCC[C@H]3C(=O)N(C)C([C@@H](C)O)C(=O)N[C@@H](C)C(=O)N3C[C@H](C)C[C@H]3C(=O)O[C@H]2C)c1 (stereo partly drawn) [Compound 5] ({NH(4-Cl-2-F-phenyl)-CO}-[Phe(3-Me)][aThr]P[ξNMeThr]A[Pro(4R-Me)]; ester 2-C) | 320 ± 20 nM | 98.6 ± 0.5% | >50 h |
| Cc1cccc(C[C@H](NC(=O)Nc2ccc(Cl)cc2F)C(=O)N[C@H]2COC(=O)[C@@H]3C[C@@H](C)CN3C(=O)[C@H](C)NC(=O)[C@@H]3CCCCN3C(=O)[C@@H]3C[C@@H](O)CN3C2=O)c1 [Compound 10] | 380 ± 30 nM | 99.7 ± 0.0% | 58.50 h |
| Cc1cccc(C[C@H](NC(=O)Nc2ccc3c(c2)OCO3)C(=O)N[C@H]2COC(=O)[C@@H]3C[C@@H](C)CN3C(=O)[C@H](C)NC(=O)[C@@H]3CN(C)CCN3C(=O)[C@@H]3CCCN3C2=O)c1 [Compound 17, (S)-2-(3-(BENZO[D][1,3]DIOXOL-5-YL)UREIDO)-3-(M-TOLYL)-N-((6AS,12S,15AS,17R,21S,23AS)-2,17,21-TRIMETHYL-6,11,15,20,23-PENTAOXOOCTADECAHYDRO-2H,6H,11H,15H-PYRAZINO[2,1-I]DIPYRROLO[2,1-C:2′,1′-L][1]OXA[4,7,10,13]TETRAAZACYCLOHEXADECIN-12-YL)PROPANAMIDE] ({NH(1,3-benzodioxol-5-yl)-CO}-[Phe(3-Me)]SP[Piperazine(2S-CO,4-Me)]A[Pro(4R-Me)]; ester 2-C) | 2640 ± 100 nM | 88.4 ± 1.6% | 51.18 ± 6.0 h |
| Cc1cccc(C[C@H](NC(=O)Nc2ccc3c(c2)OCCO3)C(=O)N[C@@H]2C(=O)N3C[C@H](O)C[C@H]3C(=O)N3CCOC[C@H]3C(=O)N[C@@H](C)C(=O)N3C[C@H](C)C[C@H]3C(=O)O[C@H]2C)c1 [Compound 27, (S)-2-(3-(2,3-DIHYDROBENZO[B][1,4]DIOXIN-6-YL)UREIDO)-N-((6AS,8R,12S,13S,15AS,17R,21S,23AS)-8-HYDROXY-13,17,21-TRIMETHYL-6,11,15,20,23-PENTAOXOOCTADECAHYDRO-6H,11H,15H-[1,4]OXAZINO[3,4-I]DIPYRROLO[2,1-C:2′,1′-L][1]OXA[4,7,10,13]TETRAAZACYCLOHEXADECIN-12-YL)-3-(M-TOLYL)PROPANAMIDE] ({X3-CO}-[Phe(3-Me)][aThr][Hyp][Morpholine(3S-CO)]A[Pro(4R-Me)]; ester 2-C) | 1200 ± 100 nM | 93.2 ± 3.2% | >50 h |
